Test results from patent publication US8450280B2, “Activation of peptide prodrugs by hK2” (GenbSpera, Inc., priority 1999, dated 2013).
pKd, pKi: −log10 of the molar value. Like-named read-outs stand apart in the source and are kept apart here. Non-standard residues stand in square brackets, D forms with d. Residues, ends and D or L forms follow the SMILES beside them. *: point of attachment. AMC = Cc1cc(=O)oc2cc(N*)ccc12; Tos = Cc1ccc(S(=O)(=O)*)cc1; Cbz = O=C(OCc1ccccc1)*; Boc = CC(C)(C)OC(=O)*

Tests used:
hK2 [1] = molecular target: T1, hK2 (Homo sapiens, UniProt P20151); experiment: Kinetic constants of AMC substrate hydrolysis by hK2; type: biochemical; design: key to Kcat: The entry “NR” means that no reaction was detected; conditions: for Activity (%): hydrolytic activity of hK2 in relation to H-Pro-Phe-Arg-AMC: 100 μM substrate; for Kcat: 50 mM Tris pH 7.5, 0.1 M NaCl, 0.2% BSA, 37° C., Lineweaver-Burk, NR = no reaction detected
T1 construct: made in house
T1 sequence (P20151 25-261): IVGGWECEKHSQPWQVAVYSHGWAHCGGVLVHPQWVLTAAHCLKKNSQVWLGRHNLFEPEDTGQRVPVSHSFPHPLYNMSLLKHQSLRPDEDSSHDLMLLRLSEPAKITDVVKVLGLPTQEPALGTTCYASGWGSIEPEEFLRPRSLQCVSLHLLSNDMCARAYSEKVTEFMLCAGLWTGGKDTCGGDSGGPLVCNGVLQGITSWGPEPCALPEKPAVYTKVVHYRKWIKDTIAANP
Procedure: The measurements were done with Fluoroscan II (Labsystems, Helsinki, Finland) using a 355 nm excitation filter and a 460 nm emission filter. The fluorescence of 7-amino-4-methylcoumarin (AMC) (Sigma, St. Louis, Mo., USA) was determined to be 700 FIU/nmol and this value was used in the calculations of the rate of product formation. Unless otherwise indicated all final analyses were performed in 200 μl of the buffer 50 mM Tris pH 7.5, 0.1 M NaCl, and 0.2% BSA at 37° C. using 1.6 pmol hK2. BSA was added to the reaction mixture in order to minimize adsorption of the enzyme to the walls of the microtiter wells. The amount of hK2 was quantified by a commercial PSA immunoassay (Prostatus, Wallac, Turku, Finland) with the Mabs H1 17 and H50 which recognize PSA and hK2 equally well (Lovgren et al., Biochem. Biophys. Res. Co., 213, 888-895 (1995)). Under the conditions described, 1.6 pmol of the hK2 preparation cleaved 50 pmol/min of the 100 μM substrate Pro-Phe-Arg-AMC (SEQ ID NO: 55). During the 20 minute measurement time the consumption of the substrates is <7% of their total amount and was not considered to affect the reaction rate. Initial analysis of the substrates were performed with 3.2 pmol hK2 at a substrate concentration of 250 μM. Km value for the substrates cleaved by hK2 at these conditions were determined using at least four substrate concentrations ranging from 0.2×Km to 5×Km. The Km and kcat values were calculated from Lineweaver-Burk plots.
Substrates ending in either arginine or lysine were tested. […] However, no hydrolysis of Arg-Gln-Arg-Arg-AMC (SEQ ID NO: 63) was detected. […] As with the semenogelins, hK2 also here cleaves substrates with Arg at position P1 and preferentially a large residue or another Arg at position P2. None of the substrates with lysine in the C-terminal position were cleaved.
The activity listed in Table 1 is hydrolytic activity of hK2 with 100 μM substrate in relation to the hydrolytic activity of hK2 with 100 μM of the tissue kallikrein substrate H-Pro-Phe-Arg-AMC (SEQ ID NO: 55). The entry “NR” means that no reaction was detected.

[2] = molecular target: sarcoplasmic reticulum (SR) and endoplasmic reticulum (ER) Ca^2+-ATPase (SERCA) pump; conditions: read-out: apparent dissociation constant; cited from earlier work
hK2 [3] = molecular target: T1, hK2; experiment: Inhibition of hK2 by protease inhibitors (substrate H-Pro-Phe-Arg-AMC); type: biochemical; conditions: for Activity (%) of hK2, percentage of inhibitor-free control: 10 minutes of incubation, 8.3 nM hK2, 90 μM substrate
Procedure: Activity of hK2 (1.6 pmol) was monitored using the substrate H-Pro-Phe-Arg-AMC (SEQ ID NO: 55) (90 μM). Inhibitors, at commonly used concentrations, and hK2 (8.3 nM) were mixed and proteolysis of 90 μM H-Pro-Phe-Arg-AMC (SEQ ID NO: 55) was followed up to 20 minutes, starting directly or 10 minutes after mixing the enzyme with various inhibitors. Inhibition was evaluated by comparison with […] controls.
The proteolytic activity is expressed in percentage of inhibitor-free control after 10 minutes of incubation.
Therefore, PPACK can be used to obtain fast irreversible inhibition of hK2.

hK2 [4] = molecular target: T1, hK2; experiment: Kinetic analysis of hK2 inhibition by zinc; type: biochemical; conditions: for pKi: two bound zinc ions model, best fit, substrates Pro-Phe-Arg-AMC and Ala-Arg-Arg-AMC, no BSA
Procedure: Since BSA contains several binding sites for Zn^2+, it could not be used in the kinetics buffer during zinc inhibition experiments. The binding of hK2 to the microtiter well walls caused a constant decrease in the reaction rate, which was however similar to all zinc concentrations. The velocities were calculated from a five-minute measurement time after mixing of the enzymes with the buffer containing substrate and zinc.
The inhibition of hK2 by zinc was first tested against competitive, uncompetitive, mixed, non-competitive, and partial non-competitive inhibitor models using commonly used formulas described for the respective inhibition models. […] The Dixon plots ([Zn^2+]/v) for the inhibition were not linear. However, at low zinc ion concentrations the inhibition pattern looked competitive. The inhibition mechanism is clearly more complex than the ones described by the formulas used. Further analysis of the inhibition mechanism was done by deriving the rate equations for various more complex mechanisms and analyzing the data by least-squares best-fit systems. The possible mechanism required two bound zinc ions, and is presented by Scheme 1.
[formula] where the concentration of free enzyme e is the total enzyme concentration divided by the sum of a) {(the zinc concentration divided by Ki1) times (the zinc concentration divided by Ki2)} and b) {(the zinc concentration divided by Ki1) plus 1} times {(the substrate concentration divided by Ks) plus 1}.
The equation fitted the experimental data quite satisfactorily. The constant values were Ki1=4.6+/−3.9 μM, Ki2=3.2+/−0.7 μM, and k=k′.

hK2 [5] = molecular target: T1, hK2; experiment: Effect of heparin on hK2 activity (Km and kcat of substrate); type: biochemical; conditions: heparin 10^−4 to 10^−7 M; data not shown
From the text: The increase had no significant effect on the calculation of the constants.

Cc1cc(=O)oc2cc(NC(=O)[C@H](CCCNC(=N)N)NC(=O)[C@H](CCCNC(=N)N)NC(=O)[C@H](C)NC(=O)OCc3ccccc3)ccc12 [Ala Arg Arg-AMC, Z-Ala-Arg-Arg-AMC] (Cbz-Ala-Arg-Arg-{AMC})
hydrolysis by hK2 (in words) (hK2 [1]): cleaved quite effectively
Activity (%): hydrolytic activity of hK2 in relation to H-Pro-Phe-Arg-AMC (hK2 [1]): 33%

Cc1cc(=O)oc2cc(NC(=O)[C@H](CCCNC(=N)N)NC(=O)[C@H](CCCNC(=N)N)NC(=O)[C@H](CCC(N)=O)NC(=O)[C@@H](N)CCCNC(=N)N)ccc12 [Arg Gln Arg Arg-AMC, H-Arg-Gln-Arg-Arg-AMC] (H-RQRR-{AMC})
hydrolysis by hK2 (in words) (hK2 [1]): no hydrolysis
Kcat (hK2 [1]): NR

Cc1cc(=O)oc2cc(NC(=O)[C@H](CCCNC(=N)N)NC(=O)CNC(=O)[C@H](CCC(N)=O)NC(=O)OC(C)(C)C)ccc12 [Gln Gly Arg-AMC, Boc-Gln-Gly-Arg-AMC] (Boc-Gln-Gly-Arg-{AMC})
Kcat (hK2 [1]): NR

Cc1ccc(S(=O)(=O)NCC(=O)N2CCC[C@H]2C(=O)N[C@@H](CCCNC(=N)N)C(=O)Nc2ccc3c(C)cc(=O)oc3c2)cc1 [Gly Pro Arg-AMC, Tos-Gly-Pro-Arg-AMC] (Tos-Gly-Pro-Arg-{AMC})
Kcat (hK2 [1]): NR

Cc1ccc(S(=O)(=O)NCC(=O)N2CCC[C@H]2C(=O)N[C@@H](CCCCN)C(=O)Nc2ccc3c(C)cc(=O)oc3c2)cc1 [Gly Pro Lys-AMC, Tos-Gly-Pro-Lys-AMC] (Tos-Gly-Pro-Lys-{AMC})
Kcat (hK2 [1]): NR

Cc1cc(=O)oc2cc(NC(=O)[C@H](CCCNC(=N)N)NC(=O)[C@H](CC(C)C)NC(=O)[C@H](CC(C)C)NC(=O)OCc3ccccc3)ccc12 [Leu Leu Arg-AMC, Z-Leu-Leu-Arg-AMC]
hydrolysis by hK2 (in words) (hK2 [1]): with lower efficiency
Activity (%): hydrolytic activity of hK2 in relation to H-Pro-Phe-Arg-AMC (hK2 [1]): 7%

Cc1cc(=O)oc2cc(NC(=O)[C@H](CCCNC(=N)N)NC(=O)[C@H](CO)NC(=O)[C@H](Cc3ccccc3)NC(=O)OC(C)(C)C)ccc12 [Phe Ser Arg-AMC, Boc-Phe-Ser-Arg-AMC] (Boc-Phe-Ser-Arg-{AMC})
Kcat (hK2 [1]): NR

Cc1cc(=O)oc2cc(NC(=O)[C@H](CCCNC(=N)N)NC(=O)[C@H](Cc3ccccc3)NC(=O)[C@@H]3CCCN3)ccc12 [Pro Phe Arg-AMC, H-Pro-Phe-Arg-AMC] (H-Pro-Phe-Arg-{AMC})
hydrolysis by hK2 (in words) (hK2 [1]): best substrate
rate of substrate cleavage by hK2 preparation (hK2 [1]; 1.6 pmol hK2, 100 μM substrate, pH 7.5, 37° C.): 50 pmol/min
Activity (%): hydrolytic activity of hK2 in relation to H-Pro-Phe-Arg-AMC (hK2 [1]): 100%

C/C=C(/C)C(=O)O[C@H]1C(C)=C2[C@H]([C@@H]1OC(=O)CCCCCCC)[C@@](C)(OC(C)=O)C[C@H](OC(=O)CCC)[C@@]1(O)[C@H]2OC(=O)[C@@]1(C)O [TG, Thapsigargin]
pKd [2]: ≥ 11.66

Cc1cc(=O)oc2cc(NC(=O)[C@H](CCCCN)NC(=O)[C@H](CC(C)C)NC(=O)[C@H](N)C(C)C)ccc12 [Val Leu Lys-AMC, H-D-Val-Leu-Lys-AMC] (H-[dV]-Leu-Lys-{AMC})
Kcat (hK2 [1]): NR

Cc1cc(=O)oc2cc(NC(=O)[C@H](CCCNC(=N)N)NC(=O)[C@@H]3CCCN3C(=O)[C@@H](NC(=O)OC(C)(C)C)C(C)C)ccc12 [Val Pro Arg-AMC, boc-Val-Pro-Arg-AMC] (Boc-Val-Pro-Arg-{AMC})
hydrolysis by hK2 (in words) (hK2 [1]): with lower efficiency
Activity (%): hydrolytic activity of hK2 in relation to H-Pro-Phe-Arg-AMC (hK2 [1]): 6%

Cc1cc(=O)oc2cc(NC(=O)[C@H](CCCNC(=N)N)NC(=O)[C@@H](NC(=O)[C@@H](NC(=O)OCc3ccccc3)C(C)C)C(C)C)ccc12 [Val Val Arg-AMC, Z-Val-Val-Arg-AMC] (Cbz-Val-Val-Arg-{AMC})
Kcat (hK2 [1]): NR

[Cl-].[Cl-].[Zn+2] [ZnCl2]
inhibition of hK2 (in words) (hK2 [3]; 8 nM hK2, 90 μM substrate): effectively inhibits hK2
Activity (%) of hK2, percentage of inhibitor-free control (hK2 [3]; inhibitor 100 μM): 10%
Activity (%) of hK2, percentage of inhibitor-free control (hK2 [3]; inhibitor 200 μM): 1.2%
effect on Km and Vmax of hK2 (hK2 [4]): increased the Km and decreased the Vmax
reversal of hK2 inhibition by addition of EDTA (hK2 [4]): totally reversed
pKi (hK2 [4]; read-out: Ki1): 5.34
pKi (hK2 [4]; read-out: Ki2): 5.49

heparin
effect on Km of the substrate (hK2 [5]): slightly increased
